According to US20210347794A1, “Phosphate Derivatives of Indole Compounds and Their Use” (ARIAGEN, INC., priority 2018, published 2021):

Experiments:
[1] = In vivo pharmacokinetic study in rats, IV or oral dose of ARI-160
Description: This example describes pharmacokinetic (PK) studies of ARI-158 and ARI-160 in dogs and rats, respectively. In the present studies, the test compounds were given to groups of male beagle dogs and rats (N=3 in each group) intravenously (IV) at 2 mg/kg or orally (PO) at 10 mg/kg. IV doses were formulated in DMSO, while PO doses were formulated in a 50/50 mixture of PEG400 and Tween 80. Blood samples were collected at pre-dose and over a period of 24 hours post-dose. Plasma concentrations of the indolo-phosphoramidate compounds were determined by HPLC.

EMT-6 cancer cells = assay: Anti-tumor activity in EMT-6 syngeneic mouse tumor model; type: in vivo; settings: 80 mpk
Description: This example describes in vivo studies that evaluated the anti-cancer efficacy of ARI-158 and ARI-160 in syngeneic mouse tumor models. Mice implanted subcutaneously with EMT-6 cancer cells were treated with ARI-158 and ARI-160, or vehicle controls, as described below.
A monolayer culture of tumor cells was maintained in vitro in DMEM or RPMI1640 medium supplemented with 10% fetal bovine serum at 37° C. in an atmosphere of 5% CO2. Cells in exponential growth phase were harvested and quantitated by cell counter before tumor inoculation.
EMT-6 syngeneic mouse tumor models were generated by inoculating female BALB/C 6 mice with EMT-6 cancer cells at their right lower flank.
Each mouse was inoculated subcutaneously with tumor cells in 0.1 mL of PBS. Treatments were started when the mean tumor size reached approximately 80-120 mm^3 (around 100 mm^3). The administration of the test compounds and the animal number in each study group are shown in the study design. The date of tumor cell inoculation was denoted as day 0.
ARI-158 and ARI-160 were dissolved in DMSO at the final concentration of 26.7 mg/ml and stored at room temperature.
Randomization of animals was started when the mean tumor size reached approximately 90 mm^3 to form the mouse study groups. The randomization was performed based on “Matched distribution” method using the multi-task method (StudyDirector™ software, version 3.1.399.19)/randomized block design. […]
Tumor volumes were measured twice per week in two dimensions using a caliper, and the volume was expressed in mm^3 using the formula: […]
where V is tumor volume, L is tumor length (the longest tumor dimension) and W is tumor width (the longest tumor dimension perpendicular to L). Dosing as well as tumor and body weight measurements was conducted in a Laminar Flow Cabinet. The body weights and tumor volumes were measured by using StudyDirector™ software (version 3.1.399.19).
Tumor growth inhibition percentage (TGI %) is an indicator for antitumor activity of a drug compound, and expressed as: […]
where T and C are the mean tumor volume (or weight) of the treated and control groups, respectively, on a given day. Statistical analysis of the difference in mean tumor volume (MTV) among the groups was conducted using the data collected on the day when the MTV of the vehicle group reached the humane endpoints, so that TGI could be derived for all or most mice enrolled in the study.

[2] = IV 2 mg/kg ARI-160, Animal_ID 1
[3] = IV 2 mg/kg ARI-160, Animal_ID 2
[4] = IV 2 mg/kg ARI-160, Animal_ID 3
[5] = PO 10 mg/kg ARI-160, Animal_ID 4
[6] = PO 10 mg/kg ARI-160, Animal_ID 5
[7] = PO 10 mg/kg ARI-160, Animal_ID 6

CCC(=O)c1csc(C(=O)c2cn(COP(=O)([O-])[O-])c3cc(F)ccc23)n1.[Na+].[Na+] [ARI-160]
AUCinf [1, 2]: 5140 ng·h/mL | AUClast [1, 2]: 5120 ng·h/mL | Cl [1, 2]: 6.48 mL/min/kg | Cmax [1, 2]: 16100 ng/mL | MRTinf [1, 2]: 13.8 min | MRTlast [1, 2]: 12.6 min | Tmax [1, 2]: 4.98 min | T½ [1, 2]: 37.2 min | Vss [1, 2]: 0.0898 L/kg | AUCinf [1, 3]: 3950 ng·h/mL | AUClast [1, 3]: 3930 ng·h/mL | Cl [1, 3]: 8.43 mL/min/kg | Cmax [1, 3]: 12100 ng/mL | MRTinf [1, 3]: 15.6 min | MRTlast [1, 3]: 13.8 min | Tmax [1, 3]: 4.98 min | T½ [1, 3]: 51.6 min | Vss [1, 3]: 0.132 L/kg | AUCinf [1, 4]: 8590 ng·h/mL | AUClast [1, 4]: 8590 ng·h/mL | Cl [1, 4]: 3.88 mL/min/kg | Cmax [1, 4]: 24600 ng/mL | MRTinf [1, 4]: 10.8 min | MRTlast [1, 4]: 10.8 min | Tmax [1, 4]: 4.98 min | T½ [1, 4]: 54 min | Vss [1, 4]: 0.042 L/kg | AUCinf ([1]; IV 2 mg/kg ARI-160, Mean): 5890 ng·h/mL | AUClast ([1]; IV 2 mg/kg ARI-160, Mean): 5880 ng·h/mL | Cl ([1]; IV 2 mg/kg ARI-160, Mean): 6.27 mL/min/kg | Cmax ([1]; IV 2 mg/kg ARI-160, Mean): 17600 ng/mL | MRTinf ([1]; IV 2 mg/kg ARI-160, Mean): 13.2 min | MRTlast ([1]; IV 2 mg/kg ARI-160, Mean): 12.6 min | Tmax ([1]; IV 2 mg/kg ARI-160, Mean): 4.98 min | T½ ([1]; IV 2 mg/kg ARI-160, Mean): 47.4 min | Vss ([1]; IV 2 mg/kg ARI-160, Mean): 0.0878 L/kg | bioavailability ([1]; IV versus oral dosing): better bioavailability with an IV dosing | AUCinf [1, 5]: 23.3 ng·h/mL | AUClast [1, 5]: 13.3 ng·h/mL | Cmax [1, 5]: 12.7 ng/mL | MRTinf [1, 5]: 139 min | MRTlast [1, 5]: 51.8 min | Tmax [1, 5]: 15 min | T½ [1, 5]: 94.8 min | AUCinf [1, 6]: 51.8 ng·h/mL | AUClast [1, 6]: 32.1 ng·h/mL | Cmax [1, 6]: 10.1 ng/mL | MRTinf [1, 6]: 505 min | MRTlast [1, 6]: 195 min | Tmax [1, 6]: 15 min | T½ [1, 6]: 368 min | AUCinf [1, 7]: 22.5 ng·h/mL | AUClast [1, 7]: 11.0 ng·h/mL | Cmax [1, 7]: 6.75 ng/mL | MRTinf [1, 7]: 574 min | MRTlast [1, 7]: 121 min | Tmax [1, 7]: 15 min | T½ [1, 7]: 364 min | AUCinf ([1]; PO 10 mg/kg ARI-160, Mean): 32.5 ng·h/mL | AUClast ([1]; PO 10 mg/kg ARI-160, Mean): 18.8 ng·h/mL | Cmax ([1]; PO 10 mg/kg ARI-160, Mean): 9.85 ng/mL | F. ([1]; PO 10 mg/kg ARI-160, Mean): 0.110% | MRTinf ([1]; PO 10 mg/kg ARI-160, Mean): 406 min | MRTlast ([1]; PO 10 mg/kg ARI-160, Mean): 122 min | Tmax ([1]; PO 10 mg/kg ARI-160, Mean): 15 min | T½ ([1]; PO 10 mg/kg ARI-160, Mean): 275 min | provision of ARI-143 ([1]; after administration of ARI-160): provided ARI-143 after oral as well as IV administration | TGI (EMT-6 cancer cells; study day 6): 0.01% | TGI (EMT-6 cancer cells; study day 10): 30.95% | TGI (EMT-6 cancer cells; study day 13): 30.58% | TGI (EMT-6 cancer cells; study day 17): 20.47% | TGI (EMT-6 cancer cells; study day 20): 32.25% | TGI (EMT-6 cancer cells; study day 24): 33.19% | TGI (EMT-6 cancer cells; study day 27): 22.24% | TGI (EMT-6 cancer cells; study day 31): 12.40%
